Source: US11419878B2, “Medicine obtained by combining FXR agonist and ARB” (Intercept Pharmaceuticals, Inc., priority 2016, dated 2022)

Columns and labels:
[1] = system: TGF-β1; test: Rat NASH model, RT-PCR of hepatic TGF-β1 mRNA expression; assay type: in vivo; details: OLETF rats, PS 8 weeks, obeticholic acid 30 mg/kg/day and/or losartan 30 mg/kg/day oral
Procedure: (§1) Using the liver sections from the rats in the various groups obtained in working example 1, an immunohistochemical study by immunohistological staining with α-smooth muscle actin (α-SMA) antibody and a quantitative analysis of transforming growth factor-β1 TGF-β1) and collagen (α1(I) procollagen) mRNA expression were conducted. α-SMA is known to be an indicator (marker) of activation of hepatic stellate cells (HSCs) (also known as hepatic star cells). Moreover, activation of hepatic stellate cells (HSC), overproduction of TGF-β1 (a fibrosis-promoting cytokine) accompanying said activation, and overproduction of extracellular matrix components such as collagen are thought to play a central role in the mechanism of progressive hepatic fibrosis in NASH. For this reason, mRNA expression of TGF-β1 and collagen (α1(I) procollagen) can be a fibrosis indicator (marker).
(§2) A comparative study was conducted by analyzing TGF-β1 and collagen (α1(I) procollagen) mRNA expression in the livers of the rates of the various groups of working example 1 by means of the quantitative real-time polymerase chain reaction (RT-PCR). Quantitation of the mRNA expression levels by RT-PCR was conducted on a StepOne Plus™ system (manufactured by Applied Biosystems®) using the fluorescent dye SYBR® Green

[2] = system: C57Bl/6J mice fed a choline-deficient, amino acid-defined, high-fat diet (CDAHFD); test: Murine NASH model (CDAHFD-fed mice), H&E histology: liver cell swelling, fatty degeneration, NAS; assay type: in vivo, mouse; details: obeticholic acid 30 mg/kg/day and/or losartan 30 mg/kg/day oral, 3 weeks from 2.5 weeks of diet
Source text: The accepted pathological diagnostic criterion for NASH is “observation of liver cell ballooning accompanied by inflammation in addition to large-droplet hepatic steatosis.” Matteoni et al. conducted a long-term follow-up study of patients with NAFLD, classifying the disease based on pathology findings into 4 types (type 1: fatty liver alone, type 2: fat accumulation plus inflammatory cell infiltration, type 3: fat accumulation plus ballooning hepatocyte degeneration, type 4: fat accumulation/ballooning hepatocyte degeneration plus Mallory-Denk bodies or fibrosis). […] In order to reduce differences among individual observers and institutions, the Nonalcoholic Steatohepatitis Clinical Research Network has proposed a pathodiagnostic scoring system in which the extent of fatty degeneration, inflammation, and hepatocyte ballooning is scored (NAS: NAFLD Activity Score) (Matteoni C A, Younossi Z M, Gramlich T, Boparai N, Liu Y C, McCullough A J: Nonalcoholic fatty liver disease: A spectrum of clinical and pathological severity. Gastroenterology, 116; 1413-1419, 1999). The pathodiagnostic standards making up the NASH score were evaluated using the following animal model, and the individual and combined effects of an FXR agonist (obeticholic acid) and an ARB (losartan) were studied. […]

[3] = system: α1(I) procollagen; test: Rat NASH model, RT-PCR of hepatic α1(I) procollagen mRNA expression; assay type: in vivo; details: OLETF rats, PS 8 weeks, obeticholic acid 30 mg/kg/day and/or losartan 30 mg/kg/day oral
Procedure: as §1, §2

Row | SMILES | TGF-β1 mRNA expression in liver compared to the positive control group [1] | liver cell swelling (positive area rate, improvement) [2] | α1(I) procollagen mRNA expression in liver compared to the positive control group [3]
1 | CCCCc1nc(Cl)c(CO)n1Cc1ccc(-c2ccccc2-c2nn[nH]n2)cc1 [losartan] | moderate decreasing tendency | no improving tendency whatsoever | moderate decreasing tendency
2 | CC[C@H]1[C@@H](O)[C@@H]2[C@H](CC[C@]3(C)[C@@H]([C@H](C)CCC(=O)O)CC[C@@H]23)[C@@]2(C)CC[C@@H](O)C[C@@H]12 [obeticholic acid, 3α,7α-dihydroxy-6α-ethyl-5β-cholan-24-oic acid] | moderate decreasing tendency | tended to be inhibited | moderate decreasing tendency
